Assay results reported in patent US9278915B2, “Agonists of GPR40” (CONNEXIOS LIFE SCIENCES PVT LTD, priority 2010, dated 2016).

These compounds were tested against T1, hGPR40 (Homo sapiens, UniProt O14842) (assay: Calcium flux assay to detect GPR40 activation). Conditions: CHO-K cells stably expressing hGPR40; Fluo-4 NW; read for 4 min at 5 s intervals.
T1 construct: expressed in transfected cells
Format: cell-based
Experimental: Biological Activity Calium Flux Assay to Detect GPR40 Activation: CHO-K cells stably expressing hGPR40 were selected in a media containing Neomycin/G418. The cells were plated at a concentration of 20,000 cells per well in black 96-well clear bottom tissue culture treated plates. The cells were cultured for 24 h at 37° C. in a humidified 5% CO2 air environment to allow for protein expression. The next day, after removal of media from wells, Fluo-4 NW (Invitrogen) is added at 100 ul/well and the cells were incubated for 30 min at 37° C. and for a further 30 min at RT. All test compounds were diluted to appropriate concentrations in HEPES buffer. Compounds were added to the cells and the wells were read in the BioTEK synergy reader and readings were taken for 4 min with an interval of 5 s.

T1 sequence (O14842 whole entry): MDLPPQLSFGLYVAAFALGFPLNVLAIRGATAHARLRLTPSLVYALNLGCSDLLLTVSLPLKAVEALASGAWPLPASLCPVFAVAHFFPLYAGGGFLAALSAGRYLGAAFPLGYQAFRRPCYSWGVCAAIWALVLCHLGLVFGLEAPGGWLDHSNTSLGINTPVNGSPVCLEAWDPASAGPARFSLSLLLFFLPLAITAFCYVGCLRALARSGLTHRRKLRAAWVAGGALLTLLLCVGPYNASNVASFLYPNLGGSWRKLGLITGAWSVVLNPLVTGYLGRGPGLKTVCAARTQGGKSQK

EC50	Compound
0.01 to 0.1 µM	CON=C(COc1ccc(CNc2ccc([C@@H]3C[C@H]3C(=O)O)cc2)cc1)c1ccccc1 (mixture of isomers) [Compound 14, (1R,2R)-2-{4-[(4-{[(2E,2Z)-2-(Methoxyimino)-2-phenylethyl]oxy}benzyl)amino]phenyl}cyclopropanecarboxylic acid]
0.01 to 0.1 µM	CON=C(COc1ccc(CNc2ccc(C3CC3C(=O)O)cc2)cc1)c1ccccc1 (mixture of isomers) [Compound 48, Sodium 2-{4-[(4-{[(2E,2Z)-2-(methoxyimino)-2-phenylethyl]oxy}benzyl)amino]phenyl}cyclopropanecarboxylate]
< 0.01 µM	CON=C(COc1ccc(COc2ccc(C(C#N)CC(=O)O)cc2)cc1)c1ccc(C#N)cc1 (mixture of isomers) [Compound 49, Sodium 3-cyano-3-{4-[(4-{[(2E,2Z)-2-(4-cyanophenyl)-2-(methoxyimino)ethyl]oxy}benzyl)oxy]phenyl}propanoate]
> 0.1 µM	CON=C(COc1ccc(COc2ccc(C(C)(C)CC(=O)O)cc2)cc1)c1ccccc1 (mixture of isomers) [Compound 61, 3-{4-[(4-{[(2E,2Z)-2-(Methoxyimino)-2-phenylethyl]oxy}benzyl)oxy]phenyl}-3-methylbutanoic acid]
> 0.1 µM	CON=C(COc1ccc(COc2ccc(CCC(=O)O)c(OCC(=O)O)c2)cc1)c1ccccc1 (mixture of isomers) [Compound 89, 3-{2-(Carboxymethoxy)-4-[(4-{[(2E,2Z)-2-(methoxyimino)-2-phenylethyl]oxy}benzyl)oxy]phenyl}propanoic acid]
> 0.1 µM	C=CCO/N=C(/CC(=O)O)c1ccc(OCc2ccc(OCC(=NOC)c3ccccc3)cc2)cc1 (mixture of isomers) [Compound 121, (3Z)-3-{4-[(4-{[(2E,2Z)-2-(Methoxyimino)-2-phenylethyl]oxy}benzyl)oxy]phenyl}-3-[(prop-2-en-1-yloxy)imino]propanoic acid]
0.01 to 0.1 µM	CO/N=C(/c1ccccc1)c1cccc(CNc2ccc(C3CC3C(=O)O)cc2)c1 (racemic) [Compound 13, (1R,2R)-2-[4-({3-[(E,Z)-(Methoxyimino)(phenyl)methyl]benzyl}amino)phenyl]cyclopropanecarboxylic acid]
0.01 to 0.1 µM	CO/N=C(/COc1ccc(COc2ccc(C(C#N)CC(=O)O)cc2)cc1F)c1ccccc1 (racemic) [Compound 21, 3-Cyano-3-{4-[(3-fluoro-4-{[(2E,2Z)-2-(methoxyimino)-2-phenylethyl]oxy}benzyl)oxy]phenyl}propanoic acid]
< 0.01 µM	CO/N=C(/COc1ccc(COc2ccc(C(C#N)CC(=O)O)cc2)cc1)c1ccc(F)cc1 (racemic) [Compound 22, 3-Cyano-3-{4-[(4-{[(2E,2Z)-2-(4-fluorophenyl)-2-(methoxyimino)ethyl]oxy}benzyl)oxy]phenyl}propanoic acid]
< 0.01 µM	CO/N=C(/COc1ccc(COc2ccc(C(C#N)CC(=O)O)cc2)c(F)c1)c1ccccc1 (racemic) [Compound 23, 3-Cyano-3-{4-[(2-fluoro-4-{[(2E,2Z)-2-(methoxyimino)-2-phenylethyl]oxy}benzyl)oxy]phenyl}propanoic acid]
0.01 to 0.1 µM	CO/N=C(/COc1ccc(COc2ccc(C(CC(=O)O)c3ccon3)cc2)cc1)c1cccc(C)c1 (racemic) [Compound 24, 3-{4-[(4-{[(2E,2Z)-2-(Methoxyimino)-2-(3-methylphenyl)ethyl]oxy}benzyl)oxy]phenyl}-3-(1,2-oxazol-3-yl)propanoic acid]
< 0.01 µM	CO/N=C(/COc1ccc(COc2ccc(C(C#N)CC(=O)O)cc2)cc1)c1ccc(OC)cc1 (racemic) [Compound 25, 3-Cyano-3-{4-[(4-{[(2E,2Z)-2-(methoxyimino)-2-(4-methoxyphenyl)ethyl]oxy}benzyl)oxy]phenyl}propanoic acid]
0.01 to 0.1 µM	CO/N=C(/COc1ccc(COc2ccc(C(C#N)CC(=O)O)cc2)cc1)c1cccc(C)c1 (racemic) [Compound 27, 3-Cyano-3-{4-[(4-{[(2E,2Z)-2-(methoxyimino)-2-(3-methylphenyl)ethyl]oxy}benzyl)oxy]phenyl}propanoic acid]
0.01 to 0.1 µM	CO/N=C(/COc1ccc(COc2ccc(CCC(=O)O)cc2)cc1)c1ccc(C#N)cc1 (racemic) [Compound 28, 3-{4-[(4-{[(2E,2Z)-2-(4-Cyanophenyl)-2-(methoxyimino)ethyl]oxy}benzyl)oxy]phenyl}propanoic acid]
< 0.01 µM	CO/N=C(/COc1ccc(COc2ccc(C(C#N)CC(=O)O)cc2)cc1)c1ccc(C#N)cc1 (racemic) [Compound 33, 3-Cyano-3-{4-[(4-{[(2E,2Z)-2-(4-cyanophenyl)-2-(methoxyimino)ethyl]oxy}benzyl)oxy]phenyl}propanoic acid]
0.01 to 0.1 µM	CO/N=C(/COc1ccc(COc2ccc(C(C#N)CC(=O)O)cc2)cc1)c1ccccc1 (racemic) [Compound 98, 3-Cyano-3-{4-[(4-{[(2E)-2-(methoxyimino)-2-phenylethyl]oxy}benzyl)oxy]phenyl}propanoic acid]
> 0.1 µM	CO/N=C(\COc1ccc(COc2ccc(C3CC3C(=O)O)cc2)cc1)c1ccc(C#N)cc1 (single isomer, unassigned) [Compound 79, Sodium 2-{4-[(4-{[(2Z)-2-(4-cyanophenyl)-2-(methoxyimino)ethyl]oxy}benzyl)oxy]phenyl}cyclopropanecarboxylate]

EC50	Compound
< 0.01 µM	CO/N=C(\COc1ccc(COc2ccc(C3CC3C(=O)O)cc2)cc1)c1ccc(C#N)cc1 (single isomer, unassigned) [Compound 80, Sodium 2-{4-[(4-{[(2Z)-2-(4-cyanophenyl)-2-(methoxyimino)ethyl]oxy}benzyl)oxy]phenyl}cyclopropanecarboxylate]
0.01 to 0.1 µM	CO/N=C(/COc1ccc(COc2ccc(C(C#N)CC(=O)O)cc2)cc1)c1ccccc1 (single isomer, unassigned) [Compound 99, 3-Cyano-3-{4-[(4-{[(2E)-2-(methoxyimino)-2-phenylethyl]oxy}benzyl)oxy]phenyl}propanoic acid]
0.01 to 0.1 µM	CO/N=C(/COc1ccc(COc2ccc(C(C#N)CC(=O)O)cc2)cc1)c1ccccc1 (single isomer, unassigned) [Compound 100, 3-Cyano-3-{4-[(4-{[(2E)-2-(methoxyimino)-2-phenylethyl]oxy}benzyl)oxy]phenyl}propanoic acid]
> 0.1 µM	CO/N=C(\COc1ccc(COc2ccc(C(C#N)CC(=O)O)cc2)cc1)c1ccccc1 (single isomer, unassigned; (+)) [Compound 74, (+)-3-Cyano-3-{4-[(4-{[(2Z)-2-(methoxyimino)-2-phenylethyl]oxy}benzyl)oxy]phenyl}propanoic acid]
0.01 to 0.1 µM	CO/N=C(\COc1ccc(COc2ccc(C(C#N)CC(=O)O)cc2)cc1)c1ccccc1 (single isomer, unassigned; (+)) [Compound 81, (+)-Sodium 3-cyano-3-{4-[(4-{[(2Z)-2-(methoxyimino)-2-phenylethyl]oxy}benzyl)oxy]phenyl}propanoate]
< 0.01 µM	CO/N=C(\COc1ccc(COc2ccc(C(C#N)CC(=O)O)cc2)cc1)c1ccccc1 (single isomer, unassigned; (-)) [Compound 75, (−)-3-Cyano-3-{4-[(4-{[(2Z)-2-(methoxyimino)-2-phenylethyl]oxy}benzyl)oxy]phenyl}propanoic acid]
< 0.01 µM	CO/N=C(\COc1ccc(COc2ccc(C(C#N)CC(=O)O)cc2)cc1)c1ccccc1 (single isomer, unassigned; (-)) [Compound 82, (−)-Sodium 3-cyano-3-{4-[(4-{[(2E,2Z)-2-(methoxyimino)-2-phenylethyl]oxy}benzyl)oxy]phenyl}propanoate]
0.01 to 0.1 µM	CO/N=C(/c1ccccc1)c1cccc(COc2ccc(CCC(=O)O)cc2)c1 [Compound 1, 3-[4-({3-[(E,Z)-(methoxyimino)(phenyl)methyl]benzyl}oxy)phenyl]propanoic acid]
0.01 to 0.1 µM	CO/N=C(/c1ccccc1)c1cccc(CNc2ccc(CCC(=O)O)cc2)c1 [Compound 2, 3-[4-({3-[(E,Z)-(Methoxyimino)(phenyl)methyl]benzyl}amino)phenyl]propanoic acid]
> 0.1 µM	CO/N=C(/c1ccccc1)c1ccc(CNc2ccc(CCC(=O)O)cc2)cc1 [Compound 3, 3-[4-({4-[(E,Z)-(Methoxyimino)(phenyl)methyl]benzyl}amino)phenyl]propanoic acid]
0.01 to 0.1 µM	CO/N=C(\COc1ccc(CNc2ccc(CCC(=O)O)cc2)cc1)c1ccccc1 [Compound 4, 3-{4-[(4-{[(2Z)-2-(Methoxyimino)-2-phenylethyl]oxy}benzyl)amino]phenyl}propanoic acid]
> 0.1 µM	CO/N=C(\COc1cccc(CNc2ccc(CCC(=O)O)cc2)c1)c1ccccc1 [Compound 5]
0.01 to 0.1 µM	CO/N=C(\COc1ccc(CNc2ccc(CCC(=O)O)cc2)cc1)c1ccccc1C [Compound 6, 3-{4-[(4-{[(2Z)-2-(Methoxyimino)-2-(2-methylphenyl)ethyl]oxy}benzyl)amino]phenyl}propanoic acid]
< 0.01 µM	CO/N=C(\COc1ccc(COc2ccc(CCC(=O)O)cc2)cc1)c1ccccc1 [Compound 7, 3-{4-[(4-{[(2Z)-2-(Methoxyimino)-2-phenylethyl]oxy}benzyl)oxy]phenyl}propanoic acid]
> 0.1 µM	CO/N=C(\COc1cccc(COc2ccc(CC(C#N)C(=O)O)cc2)c1)c1ccccc1 (stereo not drawn) [Compound 8, 2-Cyano-3-{4-[(3-{[(2E,2Z)-2-(methoxyimino)-2-phenylethyl]oxy}benzyl)oxy]phenyl}propanoic acid]
> 0.1 µM	O=C(O)CCc1ccc(NCc2cccc(/C(=N\OCC(F)(F)F)c3ccccc3)c2)cc1 [Compound 9, 3-{4-[(3-{(E,Z)-Phenyl[(2,2,2-trifluoroethoxy)imino]methyl}benzyl)amino]phenyl}propanoic acid]
